Data from ChEMBL document CHEMBL3044736, “Synthesis, characterization, solvatochromic properties, and antimicrobial evaluation of 5-acetyl-2-thioxo-dihydro-pyrimidine-4,6-dione-based chalcones” (2013).
Converted amounts (≈) assume the structure as drawn.

What was measured:
Format in all cases: functional
Staphylococcus aureus [1] = test: Antimicrobial activity against Staphylococcus aureus MTCC 96 assessed as diameter of growth inhibition zone at 250 ug/ml after 18-24 hr by agar cup diffusion method; settings: read-out: DIZ
Penicillium [2] = test: Antimicrobial activity against Penicillium wild strain assessed as diameter of growth inhibition zone at 50 ug/ml after 48-96 hr by agar cup diffusion method; settings: read-out: DIZ
Penicillium [3] = test: Antimicrobial activity against Penicillium wild strain assessed as diameter of growth inhibition zone at 100 ug/ml after 48-96 hr by agar cup diffusion method; settings: read-out: DIZ
Pseudomonas aeruginosa [4] = test: Antimicrobial activity against Pseudomonas aeruginosa MTCC 1688 assessed as diameter of growth inhibition zone at 250 ug/ml after 18-24 hr by agar cup diffusion method; settings: read-out: DIZ
Klebsiella pneumoniae [5] = test: Antimicrobial activity against Klebsiella pneumoniae MTCC 109 assessed as diameter of growth inhibition zone at 250 ug/ml after 18-24 hr by agar cup diffusion method; settings: read-out: DIZ
Candida albicans [6] = test: Antimicrobial activity against Candida albicans MTCC 227 assessed as diameter of growth inhibition zone at 25 ug/ml after 48-96 hr by agar cup diffusion method; settings: read-out: DIZ
Pseudomonas aeruginosa [7] = test: Antimicrobial activity against Pseudomonas aeruginosa MTCC 1688 by agar cup diffusion method
Staphylococcus aureus [8] = test: Antimicrobial activity against Staphylococcus aureus MTCC 96 assessed as diameter of growth inhibition zone at 50 ug/ml after 18-24 hr by agar cup diffusion method; settings: read-out: DIZ
Trichophyton rubrum [9] = test: Antimicrobial activity against Trichophyton rubrum MTCC 296 assessed as diameter of growth inhibition zone at 250 ug/ml after 48-96 hr by agar cup diffusion method; settings: read-out: DIZ
Pseudomonas aeruginosa [10] = test: Antimicrobial activity against Pseudomonas aeruginosa MTCC 1688 assessed as diameter of growth inhibition zone at 100 ug/ml after 18-24 hr by agar cup diffusion method; settings: read-out: DIZ
Klebsiella pneumoniae [11] = test: Antimicrobial activity against Klebsiella pneumoniae MTCC 109 assessed as diameter of growth inhibition zone at 50 ug/ml after 18-24 hr by agar cup diffusion method; settings: read-out: DIZ
Escherichia coli [12] = test: Antimicrobial activity against Escherichia coli MTCC 443 assessed as diameter of growth inhibition zone at 100 ug/ml after 18-24 hr by agar cup diffusion method; settings: read-out: DIZ
Klebsiella pneumoniae [13] = test: Antimicrobial activity against Klebsiella pneumoniae MTCC 109 by agar cup diffusion method
Aspergillus clavatus [14] = test: Antimicrobial activity against Aspergillus clavatus MTCC 1323 assessed as diameter of growth inhibition zone at 50 ug/ml after 48-96 hr by agar cup diffusion method; settings: read-out: DIZ
Trichophyton rubrum [15] = test: Antimicrobial activity against Trichophyton rubrum MTCC 296 assessed as diameter of growth inhibition zone at 100 ug/ml after 48-96 hr by agar cup diffusion method; settings: read-out: DIZ
Escherichia coli [16] = test: Antimicrobial activity against Escherichia coli MTCC 443 by agar cup diffusion method
Escherichia coli [17] = test: Antimicrobial activity against Escherichia coli MTCC 443 assessed as diameter of growth inhibition zone at 25 ug/ml after 18-24 hr by agar cup diffusion method; settings: read-out: DIZ
Penicillium [18] = test: Antimicrobial activity against Penicillium wild strain assessed as diameter of growth inhibition zone at 250 ug/ml after 48-96 hr by agar cup diffusion method; settings: read-out: DIZ
Streptococcus pyogenes [19] = test: Antimicrobial activity against Streptococcus pyogenes MTCC 442 assessed as diameter of growth inhibition zone at 25 ug/ml after 18-24 hr by agar cup diffusion method; settings: read-out: DIZ
Aspergillus clavatus [20] = test: Antimicrobial activity against Aspergillus clavatus MTCC 1323 by agar cup diffusion method
Staphylococcus aureus [21] = test: Antimicrobial activity against Staphylococcus aureus MTCC 96 assessed as diameter of growth inhibition zone at 100 ug/ml after 18-24 hr by agar cup diffusion method; settings: read-out: DIZ
Pseudomonas aeruginosa [22] = test: Antimicrobial activity against Pseudomonas aeruginosa MTCC 1688 assessed as diameter of growth inhibition zone at 25 ug/ml after 18-24 hr by agar cup diffusion method; settings: read-out: DIZ
Escherichia coli [23] = test: Antimicrobial activity against Escherichia coli MTCC 443 assessed as diameter of growth inhibition zone at 50 ug/ml after 18-24 hr by agar cup diffusion method; settings: read-out: DIZ
Candida albicans [24] = test: Antimicrobial activity against Candida albicans MTCC 227 assessed as diameter of growth inhibition zone at 250 ug/ml after 48-96 hr by agar cup diffusion method; settings: read-out: DIZ
Streptococcus pyogenes [25] = test: Antimicrobial activity against Streptococcus pyogenes MTCC 442 assessed as diameter of growth inhibition zone at 50 ug/ml after 18-24 hr by agar cup diffusion method; settings: read-out: DIZ
Aspergillus clavatus [26] = test: Antimicrobial activity against Aspergillus clavatus MTCC 1323 assessed as diameter of growth inhibition zone at 25 ug/ml after 48-96 hr by agar cup diffusion method; settings: read-out: DIZ
Staphylococcus aureus [27] = test: Antimicrobial activity against Staphylococcus aureus MTCC 96 assessed as diameter of growth inhibition zone at 25 ug/ml after 18-24 hr by agar cup diffusion method; settings: read-out: DIZ
Streptococcus pyogenes [28] = test: Antimicrobial activity against Streptococcus pyogenes MTCC 442 assessed as diameter of growth inhibition zone at 250 ug/ml after 18-24 hr by agar cup diffusion method; settings: read-out: DIZ
Klebsiella pneumoniae [29] = test: Antimicrobial activity against Klebsiella pneumoniae MTCC 109 assessed as diameter of growth inhibition zone at 100 ug/ml after 18-24 hr by agar cup diffusion method; settings: read-out: DIZ
Pseudomonas aeruginosa [30] = test: Antimicrobial activity against Pseudomonas aeruginosa MTCC 1688 assessed as diameter of growth inhibition zone at 50 ug/ml after 18-24 hr by agar cup diffusion method; settings: read-out: DIZ
Streptococcus pyogenes [31] = test: Antimicrobial activity against Streptococcus pyogenes MTCC 442 by agar cup diffusion method
Candida albicans [32] = test: Antimicrobial activity against Candida albicans MTCC 227 by agar cup diffusion method
Escherichia coli [33] = test: Antimicrobial activity against Escherichia coli MTCC 443 assessed as diameter of growth inhibition zone at 250 ug/ml after 18-24 hr by agar cup diffusion method; settings: read-out: DIZ
Trichophyton rubrum [34] = test: Antimicrobial activity against Trichophyton rubrum MTCC 296 by agar cup diffusion method
Klebsiella pneumoniae [35] = test: Antimicrobial activity against Klebsiella pneumoniae MTCC 109 assessed as diameter of growth inhibition zone at 25 ug/ml after 18-24 hr by agar cup diffusion method; settings: read-out: DIZ
Streptococcus pyogenes [36] = test: Antimicrobial activity against Streptococcus pyogenes MTCC 442 assessed as diameter of growth inhibition zone at 100 ug/ml after 18-24 hr by agar cup diffusion method; settings: read-out: DIZ
Trichophyton rubrum [37] = test: Antimicrobial activity against Trichophyton rubrum MTCC 296 assessed as diameter of growth inhibition zone at 50 ug/ml after 48-96 hr by agar cup diffusion method; settings: read-out: DIZ
Candida albicans [38] = test: Antimicrobial activity against Candida albicans MTCC 227 assessed as diameter of growth inhibition zone at 100 ug/ml after 48-96 hr by agar cup diffusion method; settings: read-out: DIZ
Penicillium [39] = test: Antimicrobial activity against Penicillium wild strain assessed as diameter of growth inhibition zone at 25 ug/ml after 48-96 hr by agar cup diffusion method; settings: read-out: DIZ
Penicillium [40] = test: Antimicrobial activity against Penicillium wild strain by agar cup diffusion method
Trichophyton rubrum [41] = test: Antimicrobial activity against Trichophyton rubrum MTCC 296 assessed as diameter of growth inhibition zone at 25 ug/ml after 48-96 hr by agar cup diffusion method; settings: read-out: DIZ
Candida albicans [42] = test: Antimicrobial activity against Candida albicans MTCC 227 assessed as diameter of growth inhibition zone at 50 ug/ml after 48-96 hr by agar cup diffusion method; settings: read-out: DIZ
Aspergillus clavatus [43] = test: Antimicrobial activity against Aspergillus clavatus MTCC 1323 assessed as diameter of growth inhibition zone at 100 ug/ml after 48-96 hr by agar cup diffusion method; settings: read-out: DIZ
Aspergillus clavatus [44] = test: Antimicrobial activity against Aspergillus clavatus MTCC 1323 assessed as diameter of growth inhibition zone at 250 ug/ml after 48-96 hr by agar cup diffusion method; settings: read-out: DIZ
Staphylococcus aureus [45] = test: Antimicrobial activity against Staphylococcus aureus MTCC 96 by agar cup diffusion method

O=C(/C=C/c1ccc([N+](=O)[O-])cc1)C1C(=O)NC(=S)NC1=O showed a zone of inhibition at 250 µg/mL (Staphylococcus aureus [1]) of 20 mm, a zone of inhibition at 50 µg/mL (Penicillium [2]) of 21 mm and a zone of inhibition at 100 µg/mL (Penicillium [3]) of 23 mm. For the same compound, the zone of inhibition at 250 µg/mL (Pseudomonas aeruginosa [4]) was 20 mm, the zone of inhibition at 250 µg/mL (Klebsiella pneumoniae [5]) was 16 mm and the zone of inhibition at 25 µg/mL (Candida albicans [6]) was 20 mm. It also gave an MBC (Pseudomonas aeruginosa [7]) of 250 µg/mL (≈ 783 µM), an MIC (Pseudomonas aeruginosa [7]) of 250 µg/mL (≈ 783 µM) and a zone of inhibition at 50 µg/mL (Staphylococcus aureus [8]) of 13 mm. It also gave a zone of inhibition at 250 µg/mL (Trichophyton rubrum [9]) of 25 mm, a zone of inhibition at 100 µg/mL (Pseudomonas aeruginosa [10]) of 18 mm and a zone of inhibition at 50 µg/mL (Klebsiella pneumoniae [11]) of 13 mm. It also gave a zone of inhibition at 100 µg/mL (Escherichia coli [12]) of 19 mm, an MBC (Klebsiella pneumoniae [13]) of 200 µg/mL (≈ 626 µM) and an MIC (Klebsiella pneumoniae [13]) of 200 µg/mL (≈ 626 µM). For the same compound, the zone of inhibition at 50 µg/mL (Aspergillus clavatus [14]) was 21 mm, the zone of inhibition at 100 µg/mL (Trichophyton rubrum [15]) was 23 mm and the MBC (Escherichia coli [16]) was 500 µg/mL (≈ 1570 µM). It also gave an MIC (Escherichia coli [16]) of 250 µg/mL (≈ 783 µM), a zone of inhibition at 25 µg/mL (Escherichia coli [17]) of 12 mm and a zone of inhibition at 250 µg/mL (Penicillium [18]) of 25 mm. It also gave a zone of inhibition at 25 µg/mL (Streptococcus pyogenes [19]) of 12 mm, an MFC (Aspergillus clavatus [20]) of 1000 µg/mL (≈ 3130 µM) and an MIC (Aspergillus clavatus [20]) of 1000 µg/mL (≈ 3130 µM). For the same compound, the zone of inhibition at 100 µg/mL (Staphylococcus aureus [21]) was 18 mm, the zone of inhibition at 25 µg/mL (Pseudomonas aeruginosa [22]) was 11 mm and the zone of inhibition at 50 µg/mL (Escherichia coli [23]) was 15 mm. For the same compound, the zone of inhibition at 250 µg/mL (Candida albicans [24]) was 25 mm, the zone of inhibition at 50 µg/mL (Streptococcus pyogenes [25]) was 15 mm and the zone of inhibition at 25 µg/mL (Aspergillus clavatus [26]) was 20 mm. It also gave a zone of inhibition at 25 µg/mL (Staphylococcus aureus [27]) of 11 mm, a zone of inhibition at 250 µg/mL (Streptococcus pyogenes [28]) of 23 mm and a zone of inhibition at 100 µg/mL (Klebsiella pneumoniae [29]) of 15 mm. For the same compound, the zone of inhibition at 50 µg/mL (Pseudomonas aeruginosa [30]) was 13 mm, the MBC (Streptococcus pyogenes [31]) was 100 µg/mL (≈ 313 µM) and the MIC (Streptococcus pyogenes [31]) was 100 µg/mL (≈ 313 µM). It also gave an MFC (Candida albicans [32]) of 1000 µg/mL (≈ 3130 µM), an MIC (Candida albicans [32]) of 1000 µg/mL (≈ 3130 µM) and a zone of inhibition at 250 µg/mL (Escherichia coli [33]) of 23 mm. It also gave an MFC (Trichophyton rubrum [34]) of 1000 µg/mL (≈ 3130 µM), an MIC (Trichophyton rubrum [34]) of 1000 µg/mL (≈ 3130 µM) and a zone of inhibition at 25 µg/mL (Klebsiella pneumoniae [35]) of 11 mm. It also gave a zone of inhibition at 100 µg/mL (Streptococcus pyogenes [36]) of 19 mm, a zone of inhibition at 50 µg/mL (Trichophyton rubrum [37]) of 22 mm and a zone of inhibition at 100 µg/mL (Candida albicans [38]) of 25 mm. For the same compound, the zone of inhibition at 25 µg/mL (Penicillium [39]) was 21 mm, the MFC (Penicillium [40]) was 500 µg/mL (≈ 1570 µM) and the MIC (Penicillium [40]) was 500 µg/mL (≈ 1570 µM). It also gave a zone of inhibition at 25 µg/mL (Trichophyton rubrum [41]) of 20 mm, a zone of inhibition at 50 µg/mL (Candida albicans [42]) of 21 mm and a zone of inhibition at 100 µg/mL (Aspergillus clavatus [43]) of 22 mm. The zone of inhibition at 250 µg/mL (Aspergillus clavatus [44]) was 24 mm, the MBC (Staphylococcus aureus [45]) was 200 µg/mL (≈ 626 µM) and the MIC (Staphylococcus aureus [45]) was 125 µg/mL (≈ 391 µM).
